For orientation: half-life means how long it takes for the measured level to halve. One may read the inhibition as how much of the control response was suppressed. Broadly, the IC50 is the concentration at which inhibition is half-maximal.

Here are results for 15 molecules from ChEMBL document CHEMBL4831528, “Discovery of Novel Pterostilbene-Based Derivatives as Potent and Orally Active NLRP3 Inflammasome Inhibitors with Inflammatory Activity for Colitis” (J Med Chem, 2021).

Series [1] is described as follows: Half life in human liver microsomes preincubated for 5 mins followed by NADPH addition and measured after 5 to 60 mins by LC-MS/MS analysis. It is filed as ADME, Microsome.
Series [2] can be described thus: Intrinsic clearance in human liver microsomes preincubated for 5 mins followed by NADPH addition and measured after 5 to 60 mins by LC-MS/MS analysis. It is filed as ADME, Microsome. The following applies: time 5-60 min, read-out: CLH. In general terms: Liver microsomes are a subcellular fraction often used to study metabolism.
Series [3] can be described thus: Hepatic clearance in human liver microsomes preincubated for 5 mins followed by NADPH addition and measured after 5 to 60 mins by LC-MS/MS analysis. It is filed as ADME, Microsome. Conditions: time 5-60 min.
Series [4] is described as follows: Half life in mouse liver microsomes preincubated for 5 mins followed by NADPH addition and measured after 5 to 60 mins by LC-MS/MS analysis. It is filed as ADME, Microsome. The following applies: time 5-60 min.
The nature of series [5]: Intrinsic clearance in mouse liver microsomes preincubated for 5 mins followed by NADPH addition and measured after 5 to 60 mins by LC-MS/MS analysis. It is filed as ADME, Microsome. Conditions: time 5-60 min, read-out: CLH.
Series [6] can be described thus: Hepatic clearance in mouse liver microsomes preincubated for 5 mins followed by NADPH addition and measured after 5 to 60 mins by LC-MS/MS analysis. It is filed as ADME, Microsome. Conditions: time 5-60 min.
Series [7] concerns the target NACHT, LRR and PYD domains-containing protein 3 (Mus musculus) (UniProt Q8R4B8). The series is described as follows: Inhibition of NLRP3 inflammasome activation in LPS-stimulated mouse J774A.1 cells assessed as inhibition of cell pyrolysis at 20 uM incubated for 1 hr followed by ATP addition and measured after 30 mins by Hoechst 33342/propidium iodide staining based high content screening method relative to control. Conditions: J774.A1, time 1.5 hrs.

Another series deals with L02. The series is described as follows: Cytotoxicity against human L-02 cells incubated for 24 hrs by MTT assay. It is filed as cell-based. The following applies: L02, 24 h. (Tetrazolium assays rely on reduction of a dye to a coloured formazan, in cell work by metabolically active cells.)
Series [8] has as its target NACHT, LRR and PYD domains-containing protein 3 (Mus musculus) (UniProt Q8R4B8). The series is described as follows: Inhibition of NLRP3 inflammasome activation in LPS-stimulated mouse J774A.1 cells assessed as inhibition of cell pyrolysis at 10 uM incubated for 1 hr followed by ATP addition and measured after 30 mins by Hoechst 33342/propidium iodide staining based high content screening method relative to control. Conditions: J774.A1, time 1.5 hrs.

Series [9] concerns the target NACHT, LRR and PYD domains-containing protein 3 (Mus musculus, UniProt Q8R4B8). In words: Inhibition of NLRP3 inflammasome activation in LPS-stimulated mouse bone marrow-derived macrophages assessed as reduction in IL-1beta secretion preincubated for 30 mins followed by nigericin addition and measured after 30 mins by ELISA. It is filed as tissue-based, Macrophage. A general note: In an ELISA, binding on a coated surface is turned into a signal by an enzyme label.

A further series concerns Macrophage. The series is described as follows: Inhibition of NFkappaB activation in LPS-stimulated mouse bone marrow-derived macrophages assessed as reduction in TNFalpha secretion preincubated for 30 mins followed by nigericin addition and measured after 30 mins by ELISA. It is filed as tissue-based. Conditions: time 60.0 min.
Series [10] has as its system Mus musculus. In words: Anti-inflammatory activity in C57BL/6 mouse DSS-induced acute ulcerative colitis assessed as reduction in disease index at 10 to 20 mg/kg, ig administered for 7 days. It is filed as functional, organism-based. Conditions: dose 10-20 mg/kg, time 7.0 day.
Series [11] relates to Mus musculus. In words: In vivo inhibition of NLRP3 inflammasome activation in C57BL/6 mouse assessed as reduction in MPO activity at 10 mg/kg, ig administered for 7 days by ELISA. It is filed as functional, organism-based. Conditions: time 7.0 day.
Series [12] has as its system Mus musculus. The series is described as follows: In vivo inhibition of NLRP3 inflammasome activation in C57BL/6 mouse assessed as reduction in MPO activity at 20 mg/kg, ig administered for 7 days by ELISA. It is filed as functional, organism-based. The following applies: time 7.0 day.
Series [13] deals with Mus musculus. The series is described as follows: Protection against DSS-induced acute ulcerative colitis in C57BL/6 mouse assessed as reduction in adhesion of colon at 20 mg/kg, ig administered for 7 days. Conditions: time 7.0 day. It is filed as functional, organism-based.
Series [14] can be described thus: Toxicity in C57BL/6 mouse assessed as effect on diet at 10 to 20 mg/kg, ig administered for 28 days. Conditions: in vivo, po, 672 h, dose 10-20 mg/kg, time 28 day. It is filed as organism-based.
Series [15] can be described thus: Toxicity in C57BL/6 mouse assessed as effect on activity at 10 to 20 mg/kg, ig administered for 28 days. The following applies: in vivo, po, 672 h, dose 10-20 mg/kg, time 28 day. It is filed as organism-based.
Series [16] in a line: Toxicity in C57BL/6 mouse assessed as effect on fur at 10 to 20 mg/kg, ig administered for 28 days. The following applies: in vivo, po, 672 h, dose 10-20 mg/kg, time 28 day. It is filed as organism-based.
Series [17] in a line: Toxicity in C57BL/6 mouse assessed as effect on spirit at 10 to 20 mg/kg, ig administered for 28 days. It is filed as organism-based. Conditions: in vivo, po, 672 h, dose 10-20 mg/kg, time 28 day.
The nature of series [18]: Toxicity in C57BL/6 mouse assessed as reduction in survival rate at 20 mg/kg, ig administered for 28 days. It is filed as organism-based. Conditions: in vivo, po, 672 h, time 28 day.

Calls of active or inactive are those of the source. No cut-off for these calls is given here. Where only a bound is given, the exact number is not on record here.

Chain of NACHT, LRR and PYD domains-containing protein 3 (Mus musculus) (Q8R4B8 whole entry, the tested form may be a part): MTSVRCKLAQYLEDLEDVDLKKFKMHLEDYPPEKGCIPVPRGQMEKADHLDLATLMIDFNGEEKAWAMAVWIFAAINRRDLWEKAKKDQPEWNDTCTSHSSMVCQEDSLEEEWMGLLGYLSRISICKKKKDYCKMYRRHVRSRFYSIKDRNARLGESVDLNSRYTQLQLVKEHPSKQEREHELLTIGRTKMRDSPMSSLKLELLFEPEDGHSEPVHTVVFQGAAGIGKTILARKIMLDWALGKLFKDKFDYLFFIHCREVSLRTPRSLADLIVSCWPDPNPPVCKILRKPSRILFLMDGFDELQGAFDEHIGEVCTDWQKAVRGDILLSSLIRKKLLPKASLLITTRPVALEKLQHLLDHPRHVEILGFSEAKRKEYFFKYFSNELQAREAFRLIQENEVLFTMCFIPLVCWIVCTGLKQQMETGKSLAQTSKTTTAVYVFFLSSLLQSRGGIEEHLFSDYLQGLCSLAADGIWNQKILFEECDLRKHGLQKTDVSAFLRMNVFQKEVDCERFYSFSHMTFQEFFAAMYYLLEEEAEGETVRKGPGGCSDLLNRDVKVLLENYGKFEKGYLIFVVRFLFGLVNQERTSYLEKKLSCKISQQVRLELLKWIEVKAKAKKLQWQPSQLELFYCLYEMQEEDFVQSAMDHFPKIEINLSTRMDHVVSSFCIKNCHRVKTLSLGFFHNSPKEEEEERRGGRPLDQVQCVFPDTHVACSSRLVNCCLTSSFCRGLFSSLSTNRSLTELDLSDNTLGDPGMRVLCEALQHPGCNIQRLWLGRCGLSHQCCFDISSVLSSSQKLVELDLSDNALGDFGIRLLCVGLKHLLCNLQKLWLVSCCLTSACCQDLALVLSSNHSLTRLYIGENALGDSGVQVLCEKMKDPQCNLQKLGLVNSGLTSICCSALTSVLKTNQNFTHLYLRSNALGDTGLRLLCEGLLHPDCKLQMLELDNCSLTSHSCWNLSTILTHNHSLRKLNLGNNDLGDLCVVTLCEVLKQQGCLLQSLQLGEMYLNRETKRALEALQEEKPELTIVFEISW
Chain of NACHT, LRR and PYD domains-containing protein 3 (Q8R4B8 whole entry, the tested form may be a part): as above

Consider `COc1ccc2c(c1)[C@]13CCCC[C@@H]1[C@H](C2)N(C)CC3` [DEXTROMETHORPHAN], for which the half-life was 31.2 min in series [1] and 16.6 min in series [4]. The microsomal CLint in series [2] amounted to 44.5 µL/min/mg; in [5], 83.3 µL/min/mg. Besides, the CLhep predicted is 14.8 mL/min/kg in series [3] and 70.6 mL/min/kg in series [6].

Turning to `COc1cc(/C=C/c2ccc(OCc3ccc(C(F)(F)F)cc3)cc2)cc(OC)c1`, the values for the inhibition in series [7] and in [8] were 8.51% and 6.32%, respectively. Further, the IC50 in the series with L02 is above 100 µM; in series [9], above 10 µM.

Consider `COc1cc(/C=C/c2ccc(NC(=O)C3CCC3)cc2)c(/C=C/[N+](=O)[O-])c(OC)c1`, for which the IC50 with L02 was above 100 µM; in [9], 1.41 µM. For the same molecule, the inhibition in [8] amounted to 55.6%.

For the molecule `COc1cc(/C=C/c2ccc(NC(=O)C3CCCCC3)cc2)c(/C=C/[N+](=O)[O-])c(OC)c1`, the figures for the half-inhibitory concentration (IC50) (with L02; in series [9]) were above 100 µM and above 10 µM, respectively. The inhibition in [8] was 28.7%.

For `COc1cc(/C=C/c2ccc(OCC(=O)NCc3ccncc3)cc2)c(/C=C/[N+](=O)[O-])c(OC)c1`, the inhibition in [7] was found to be 65.4%; in [8], 45.3%. For the same molecule, the values for the half-maximal inhibitory concentration (IC50) (with L02; in series [9]) were 63 µM and 7.68 µM, respectively.

For the molecule `COc1cc(/C=C/c2ccc(O)cc2)cc(OC)c1` [PTEROSTILBENE], in [7], the inhibition was 21.2%. Besides, the IC50 with L02 was above 100 µM; in [9] it was above 10 µM. For the same molecule, the inhibition entry in the series with Macrophage was “Active”.

Turning to `O=[N+]([O-])/C=C/c1ccc2c(c1)OCO2`, the inhibition is 89.2% in series [7] and 70.6% in series [8]. The IC50 is 41.1 µM in the series with L02 and 2.31 µM in series [9].

As to `COc1cc(/C=C/c2ccc(N)cc2)c(/C=C/[N+](=O)[O-])c(OC)c1`, the inhibition is 75.3% in [7] and 54.7% in [8]. In addition, the half-inhibitory concentration (IC50) was 85.1 µM with L02 and 1.37 µM in [9]. The result with Mus musculus [10] and in the series with Mus musculus [13] was Active. In addition, in the series on Mus musculus [11], the inhibition entry was “Active”. Besides, the inhibition result in the series with Mus musculus [12] was “inactive”. Besides, the Activity entry in series [14], in [15], in [16], in [17] and in [18] was “Toxic” each time.

Regarding `CCCCNC(=O)COc1ccc(/C=C/c2cc(OC)cc(OC)c2/C=C/[N+](=O)[O-])cc1`, the inhibition is 70.1% in series [7] and 40.9% in series [8]. For the same molecule, the IC50 was above 100 µM with L02 and 7.18 µM in [9].

`COc1cc(/C=C/c2ccc(O)cc2)c(/C=C/[N+](=O)[O-])c(OC)c1`: the inhibition in series [7] stood at 31.5%; in [8] it was 13.3%. Besides, the IC50 in the series on L02 is above 100 µM; in [9], above 10 µM.

Turning to `COc1cc(/C=C/c2ccc(OCC(=O)NCc3ccccc3)cc2)c(-c2cnn[nH]2)c(OC)c1`, the inhibition in [7] is 31.6%; in [8] it was 19.4%. Also, the half-maximal inhibitory concentration (IC50) was above 100 µM in the series on L02 and above 10 µM in series [9].

`COc1cc(/C=C/c2ccc(NC(=O)CCCl)cc2)c(/C=C/[N+](=O)[O-])c(OC)c1`: the IC50 was above 100 µM in the series on L02 and 0.76 µM in series [9]. Moreover, the inhibition in series [8] was 70.5%.

On to `C=C1C(=O)[C@]23[C@H](O)[C@H]1CC[C@H]2[C@@]12CO[C@]3(O)[C@@H](O)[C@@H]1C(C)(C)CC[C@@H]2O` [ORIDONIN], for which the values for the inhibition in series [7] and in series [8] were 83.3% and 69.5%, respectively. Moreover, the IC50 is 38.2 µM in the series with L02 and 0.81 µM in series [9].

On to `COc1cc(/C=C/c2ccc(OCC(=O)NCC3CCOCC3)cc2)c(/C=C/[N+](=O)[O-])c(OC)c1`, for which the inhibition in series [7] was 25.3%; in [8] it was 15.3%. Besides, the IC50 in the series on L02 is above 100 µM.

For the molecule `COc1cc(/C=C/c2ccc(OCC(=O)NCc3ccc(Br)cc3)cc2)c(/C=C/[N+](=O)[O-])c(OC)c1`, the inhibition in series [7] is 34.9%; in [8], 24%. The IC50 in the series with L02 was above 100 µM; in series [9], 9.68 µM.
